Assay results as given in patent publication US9440941B2, “Substituted chroman-6-yloxy-cycloalkanes and their use as pharmaceuticals” (SANOFI, priority 2013, dated 2016).
Where a name gives a salt, the structure may show the parent alone.

The molecules below were run against T1, human NCX1 (Homo sapiens, UniProt P32418) (assay: Inhibition of Ca2+ influx into cells (NCX1 reverse mode), FLIPR Fluo-4 assay). Conditions: inhibition of NCX1 in reverse mode (Ca2+ influx into cells); read-out: NCX1rv IC50.
T1 construct: expressed in transfected cells
Assay type: cell-based
In short: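 CHO cells stably expressing human NCX1, loaded with Fluo-4 AM, preincubated with compound 45 min at 16 °C in pH 7.4 buffer (3.5 mM CaCl2). Reverse mode triggered by 20 µM gramicidin (final); Fluo-4 fluorescence read at 520 nm every 2 s. IC50 from percentage inhibition of max-minus-min fluorescence.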

In order of falling IC50:
1. CCn1nccc1CNC(=O)C1CCC(Oc2ccc3c(c2Cl)CCC(c2ccccc2)O3)CC1 (stereo not shown) [compound 293]  4700 nM
2. O=C(NCc1ccno1)C1CCC(Oc2ccc3c(c2Cl)CCC(c2ccccc2)O3)CC1 (stereo not shown) [compound 292]  1900 nM
3. CC1Cc2cc(OC3CCC(C(=O)NCCO)CC3)ccc2OC1c1ccccc1 (stereo not shown) [compound 299]  1900 nM
4. N-[2-(1-Isopropylpiperidin-4-yl)ethyl]-4-(2-phenylchroman-6-yloxy)-cyclohexylamine [compound 136]  1800 nM
5. CCn1nccc1CNC(=O)C1CCC(Oc2cc3c(cc2C)OC(c2ccccc2C)CC3)CC1 (stereo not shown) [compound 290]  1500 nM
6. NCC1CCC(Oc2ccc3c(c2)CCC(c2ccccc2)O3)C1 (stereo not shown) [compound 305, hydrochloride]  1500 nM
7. CC1Cc2cc(OC3CCC(C(=O)NCc4ccno4)CC3)ccc2OC1c1ccccc1 (stereo not shown) [compound 298]  1400 nM
8. N-(3,3-Dimethylbutyl)-4-(2-phenylchroman-6-yloxy)-cyclohexylamine [compound 152]  1400 nM
9. N-((S)-2-Methoxy-1-methyl-ethyl)-4-(2-phenylchroman-6-yloxy)-cyclohexylamine [compound 140]  1400 nM
10. COc1cccc(C2CCc3cc(OC4CCC(C(=O)NCCO)CC4)ccc3O2)c1F (stereo not shown) [compound 294]  1300 nM
11. N-(2-Hydroxy-1,1-dimethyl-ethyl)-4-(2-phenylchroman-6-yloxy)-cyclohexanecarboxamide [compound 151]  1300 nM
12. O=C(NCCO)C1CCC(Oc2ccc3c(c2Cl)CCC(c2ccccc2)O3)CC1 (stereo not shown) [compound 291]  1100 nM
13. COc1cccc(C2CCc3cc(OC4CCC(C(=O)NCc5ccno5)CC4)ccc3O2)c1F (stereo not shown) [compound 295]  1100 nM
14. N-(1,3-Dimethylbutyl)-4-(2-phenylchroman-6-yloxy)-cyclohexylamine [compound 141]  1000 nM
15. N-[1-(Methoxymethyl)propyl]-4-(2-phenylchroman-6-yloxy)-cyclohexylamine [compound 133]  1000 nM
16. CCn1nccc1CNC(=O)C1CCC(Oc2ccc3c(c2)CCC(c2cccc(OC)c2F)O3)CC1 (stereo not shown) [compound 296]  900 nM
17. N-(3-Hydroxypropyl)-4-(2-phenylchroman-6-yloxy)-cyclohexanecarboxamide [compound 150]  900 nM
18. N-But-3-enyl-4-(2-phenylchroman-6-yloxy)-cyclohexylamine [compound 148]  900 nM
19. N-(2-tert-Butoxyethyl)-4-(2-phenylchroman-6-yloxy)-cyclohexylamine [compound 135]  800 nM
20. N-(3-Methylbutyl)-4-(2-phenylchroman-6-yloxy)-cyclohexylamine [compound 130]  800 nM
21. N-Cyclopentyl-4-(2-phenylchroman-6-yloxy)-cyclohexylamine [compound 143]  800 nM
22. N-(2-Methoxyethyl)-4-(2-phenylchroman-6-yloxy)-cyclohexylamine [compound 132]  700 nM
23. N[C@@H]1CC[C@@H](Oc2ccc3c(c2)CCC(c2ccccc2)O3)C1 (stereo partly shown) [compound 304, hydrochloride]  600 nM
24. N-(2-Ethylsulfanylethyl)-4-(2-phenylchroman-6-yloxy)-cyclohexylamine [compound 131]  600 nM
25. N-Cyclobutyl-4-(2-phenylchroman-6-yloxy)-cyclohexylamine [compound 142]  600 nM
26. N-Pentyl-4-(2-phenylchroman-6-yloxy)-cyclohexylamine [compound 144]  600 nM
27. N-[2-(1,1-Dioxo-thiomorpholin-4-yl)ethyl]-4-(2-phenylchroman-6-yloxy)-cyclohexylamine [compound 138]  600 nM
28. CCn1nccc1CNC(=O)C1CCC(Oc2ccc3c(c2)CC(C)C(c2ccccc2)O3)CC1 (stereo not shown) [compound 297]  500 nM
29. Cc1ccccc1C1CCc2cc(O[C@H]3CC[C@@H](C(=O)NCCO)CC3)ccc2O1 (single isomer, unassigned) [Example 269, cis-4-(2-o-tolyl-chroman-6-yloxy)-cyclohexanecarboxylic acid (2-hydroxy-ethyl)-amide]  400 nM
30. CCn1nccc1CNC(=O)C1CCC(Oc2ccc3c(c2)CCC(c2cccc(F)c2OC)O3)CC1 (stereo not shown) [compound 300]  400 nM
31. COc1c(F)cccc1C1CCc2cc(OC3CCC(C(=O)NCCO)CC3)ccc2O1 (stereo not shown) [compound 302]  400 nM
32. Cc1ccccc1[C@H]1CCc2cc(O[C@H]3CC[C@H](C(=O)NCCO)CC3)ccc2O1 [Example 267, trans-4-((R)-2-o-tolyl-chroman-6-yloxy)-cyclohexanecarboxylic acid (2-hydroxy-ethyl)-amide]  200 nM
33. COc1c(F)cccc1C1CCc2cc(OC3CCC(C(=O)NCc4ccno4)CC3)ccc2O1 (stereo not shown) [compound 301]  200 nM
34. Cc1ccccc1C1CCc2cc(O[C@H]3CC[C@@H](C(=O)NCCO)CC3)ccc2O1 (single isomer, unassigned) [Example 270, cis-4-(2-o-tolyl-chroman-6-yloxy)-cyclohexanecarboxylic acid (2-hydroxy-ethyl)-amide]  100 nM

The molecules below were run against T1, human NCX1 (assay: Inhibition of Ca2+ efflux out of cells (NCX1 forward mode), FLIPR calcium assay). Conditions: CHO cells stably expressing human NCX1; Ca2+ efflux after Ionomycin; read-out: NCX1fw IC50 (inhibition of NCX1 in forward mode).
Assay type: cell-based
Description: The sodium/calcium exchanger NCX1 can transport calcium ions and sodium ions through the cell membrane. The transport is an exchange of Ca^2+ and Na^+ in two directions depending on membrane potential and ion gradients. At the first direction, named “forward mode” or “calcium export mode”, Ca^2+ is transported out of the cell and Na^+ is transported into the cell. At the other direction, named “reverse mode” or “calcium import mode”, the transport directions are vice versa. The effect of the compounds of the invention on NCX1 was determined in CHO cells stably expressing human NCX1 (gene symbol SLC8A1; cf. WO 2009/115238). The assay is based on the monitoring of intracellular Ca^2+ concentrations using a calcium-sensitive fluorescence dye which is detected by means of a FLIPR device (Fluorimetric Imaging Plate Reader, Molecular Devices).
Assay Technology—Forward Mode
The assay is based on the monitoring of intracellular Ca^2+ concentrations using the PBX Calcium Assay Kit from BD (Becton, Dickinson and Company) with calcium indicator dye 51-9000177BKa (BD, 640177). CHO cells expressing NCX1 were loaded with the dye, and after a preincubation period with the test compound, lonomycin (Calbiochem, 407950) was added. lonomycin is an ionophor for Ca^2+ ions mediating an increase of intracellular Ca^2+ ions. Consequently, intracellular Ca^2+ ions are exchanged against extracellular Na^+ ions (Ca^2+ efflux, forward mode). The decrease of intracellular Ca^2+ ions was detected by measuring the fluorescence of the calcium indicator dye at a wavelength of 520 nm by a FLIPR device.
Briefly, similarly as for the reverse mode, for the forward mode transport assay 18000 cells per well were seeded into a 96 well microplate (Corning COSTAR 3904) and incubated overnight in culture medium (cf. above). A total volume of 100 μl medium per well was used. For the preparation of the FLIPR assay, the culture medium was removed from the plates and 100 μl of assay buffer (133.8 mM NaCl (Sigma, S5886); 4.7 mM KCl (Sigma, P3911); 1.25 mM MgCl2 (Merck, 1.05833.0250); 3.5 mM CaCl2 (Merck, 1.02083.0250); 5 mM glucose (Sigma, G7021); 10 mM Hepes (Sigma, H4034); pH 7.4)) were added to each well in a washing step. Assay buffer was removed, and 100 μl of a solution of the test compound in assay buffer in different concentrations were added into the wells. Further, 100 μl of dye solution (0.09% (v/v) calcium indicator dye, 9.1% (v/v) signal enhancer (from PBX Calcium Assay Kit); in assay buffer) were added into each well. The plates were incubated in the dark at room temperature for 60 min. Meanwhile a 10 μM solution of lonomycin in assay buffer (additionally containing 0.05% fetal calf serum (cf. above); 4° C.) was prepared and stored in the wells of a 96 well microplate (96 well microplate, polypropylene, U-shape (Greiner Bio-One, 650201)). The fluorescence monitoring was performed at 60 measuring points with measurement intervals of 2 sec. After the fifth measuring point, 50 μl of the lonomycin solution were added to each well of the assay plate to give a final lonomycin concentration of 2 μM. For the determination of the IC50 values the minimal fluorescence value was subtracted from the maximal fluorescence value for the fifteenth to fifty-fifth measuring points. The calculation of the IC50 values via the percentage inhibitions of Ca^2+ efflux out of cells (forward mode) effected by the test compound was performed in Biost@t Speed 2.0. “NCX1fw IC50” in Table 2 means the IC50 value (in μM (micromol/liter)) for inhibition of NCX1 in forward mode.

In order of rising IC50:
1. Cc1ccccc1C1CCc2cc(O[C@H]3CC[C@@H](C(=O)NCCO)CC3)ccc2O1 (single isomer, unassigned) [Example 270, cis-4-(2-o-tolyl-chroman-6-yloxy)-cyclohexanecarboxylic acid (2-hydroxy-ethyl)-amide]  1000 nM
2. Cc1ccccc1C1CCc2cc(O[C@H]3CC[C@@H](C(=O)NCCO)CC3)ccc2O1 (single isomer, unassigned) [Example 269, cis-4-(2-o-tolyl-chroman-6-yloxy)-cyclohexanecarboxylic acid (2-hydroxy-ethyl)-amide]  3100 nM
3. Cc1ccccc1[C@H]1CCc2cc(O[C@H]3CC[C@H](C(=O)NCCO)CC3)ccc2O1 [Example 267, trans-4-((R)-2-o-tolyl-chroman-6-yloxy)-cyclohexanecarboxylic acid (2-hydroxy-ethyl)-amide]  4400 nM
